# Laboratory results taken from paper PMC10906223 (JCI Insight, 2024).
# Where “and” joins values, the source holds several entries; their conditions need not be identical. Identical values can stand only once.
# Legend:
# Type in all cases: in vivo, mouse
# [1] = system: diabetic NOD mice; assay: Daily body weight in NOD mice; conditions: for Daily body weight (Figure 7F): Diabetic, WCDD301 treated, in g (unit assumed)
# Procedure: (§1) We preweighed WCDD301 into microfuge tubes and reconstituted it using deionized water. Using a 10 μL pipette tip, we placed the calculated dose of WCDD301 (at the volume range of 1–1.5 μL) within the center of pearls. WCDD301 was placed into pearls 30–45 minutes before administration. For oral administration of pearls, we designed an applicator using a disposable plastic transfer pipette and syringe plunger lubricated with olive oil. Food intake and body weight in each experimental group (diabetic WCDD301-treated, diabetic placebo-treated, and nondiabetic placebo-treated NOD mice) were monitored daily for 4 weeks. Urine glucose was measured from individually caged NOD mice (nondiabetic placebo treated n = 2, diabetic placebo treated n = 2, and diabetic WCDD301 treated n = 4, 21–23 weeks old) with metabolic cages. Urine glucose was monitored every 24 hours for 10 days by semiquantitative measurements (P-STICKS, Millpledge Veterinary).
# [2] = system: diabetic NOD mice; assay: Intraperitoneal glucose tolerance test in NOD mice; parameters: Blood glucose, IPGTT (Figure 6D): unit not given here; conditions: for Blood glucose, IPGTT (Figure 6D): Diabetic
# Procedure: Following 5 hours of fasting, NOD mice were injected with 20% sterile glucose solution (i.p. […] body weight; at the volume of 10 times of the body weight). Blood glucose levels were measured before injection by tail nick. Following injection, blood glucose levels were measured at time points of 15, 30, 45, 60, 90, 120, and 180 minutes by using the glucometer. […] Glucose tolerance test was done at 3 time points (8, 14, and 24 hours) after the final WCDD301 administration. Data were plotted using GraphPad Prism software version 4.
# [3] = system: diabetic NOD mice; assay: Plasma somatostatin in NOD mice; parameters: unit not given beside the values; conditions: WCDD301 group of NOD mice; quantity not given
# Procedure: (§2) Terminal blood was collected into microfuge tubes containing K2-EDTA (supplemented by 45 mM phenylmethylsulphonyl fluoride and 0.77 μM aprotinin) through cardiac puncture. Plasma was separated by centrifugation (2,000g for 10 minutes at 4°C) and kept at –80°C until analysis. Plasma samples with hemolysis were excluded from the study. […] Values of BUN, creatinine, ALB, ALT, and AST were determined by a Roche Cobas C501 Autoanalyzer as performed by the Washington University Diabetes Research Center Translational Diagnostics Core. Reference intervals of blood chemistry parameters for inbred NOD mice were extracted from the Mouse Phenome Database (https://phenome.jax.org/).
# [4] = system: diabetic NOD mice; assay: Daily urine glucose in NOD mice
# Procedure: as §1
# [5] = system: NOD mice; assay: Blood chemistry parameters in WCDD301-treated NOD mice
# Procedure: as §2
# [6] = system: α cells of NOD mice islets; assay: α cell numbers and sizes in islets of NOD mice; conditions: 11-week administration; Supplemental Figure 7
# Procedure: Pancreata of NOD mice (females, n = 3 per group) from nondiabetic, diabetic placebo-treated, and diabetic WCDD301-treated cohorts were excised; fixed in 10% buffered formalin for 5 days; and treated with ethanol 70% for 2 days before paraffin embedding. The paraffin-embedded tissue blocks were longitudinally sectioned in 5 μm slices and fixed on microscope slides. Following deparaffinization (through incubation in graded xylene, graded ethanol, and PBS), permeabilization (using 0.1% Triton X-100 in PBS), and background blocking (using 5% BSA solution containing 0.1% Tween 20), samples were incubated with primary antibodies (mouse anti-glucagon, Abcam, catalog ab10988; above-mentioned rabbit anti-EphA4), secondary antibodies (goat anti-mouse IgG Alexa Fluor 488; Invitrogen, catalog A-11001; goat anti-rabbit IgG Alexa Fluor 633, Invitrogen, catalog A-21070), SPY555-Actin (Cytoskeleton, catalog SC202), and DAPI. Image acquisition and analysis were performed as for dispersed islet cells. […] ROIs were manually drawn around each islet, background signal was removed by thresholding, and intensity of glucagon signal was determined and normalized by the islet surface area. To determine sizes of α cells per islet, ROIs were manually drawn around α cells in each islet. […]
structure (smiles),measurement,setting,value
"CC(=O)OCC(N)(COC(C)=O)COC(C)=O [WCDD301, 2-(acetoxymethyl)-2-aminopropane-1,3-diyl diacetate]",Daily body weight (Figure 7F),[1]; Day 1,22.8 and 23.7 and 24.1 and 24.7
same,Daily body weight (Figure 7F),[1]; Day 2,23 and 23.9 and 24.3 and 25.3
same,Daily body weight (Figure 7F),[1]; Day 3,22.6 and 23.4 and 23.9 and 25.3
same,Daily body weight (Figure 7F),[1]; Day 7,22.3 and 23.1 and 23.5 and 24.7
same,Daily body weight (Figure 7F),[1]; Day 8,22.3 and 23.1 and 23.5 and 24.8
same,Daily body weight (Figure 7F),[1]; Day 9,22.6 and 23.4 and 23.9 and 24.8
same,Daily body weight (Figure 7F),[1]; Day 10,22.3 and 23.1 and 23.5 and 24.6
same,Daily body weight (Figure 7F),[1]; Day 11,22.3 and 23.1 and 23.5 and 25.1
same,Daily body weight (Figure 7F),[1]; Day 12,22.4 and 23.2 and 23.7 and 25.4
same,Daily body weight (Figure 7F),[1]; Day 13,22.5 and 23.3 and 23.8 and 25.3
same,Daily body weight (Figure 7F),[1]; Day 14,22.6 and 23.4 and 23.9 and 25.2
same,Daily body weight (Figure 7F),[1]; Day 15,22.9 and 23.8 and 24.2 and 24.7
same,Daily body weight (Figure 7F),[1]; Day 16,23.1 and 24 and 24.4 and 25.6
same,Daily body weight (Figure 7F),[1]; Day 17,23 and 23.9 and 24.3 and 25.3
same,Daily body weight (Figure 7F),[1]; Day 18,22.8 and 23.7 and 24.1 and 25.2
same,Daily body weight (Figure 7F),[1]; Day 19,22.4 and 23.2 and 23.7 and 25.1
same,Daily body weight (Figure 7F),[1]; Day 20,22.6 and 23.4 and 23.9 and 25.7
same,Daily body weight (Figure 7F),[1]; Day 21,22.5 and 23.3 and 23.8 and 25.1
same,Daily body weight (Figure 7F),[1]; Day 22,22.6 and 23.4 and 23.9 and 25.1
same,Daily body weight (Figure 7F),[1]; Day 23,22.4 and 23.2 and 23.7 and 25.1
same,Daily body weight (Figure 7F),[1]; Day 24,22.5 and 23.3 and 23.8 and 25.1
same,Daily body weight (Figure 7F),[1]; Day 25,22.5 and 23.3 and 23.8 and 25.2
same,Daily body weight (Figure 7F),[1]; Day 26,22.3 and 23.1 and 23.5 and 25.4
same,Daily body weight (Figure 7F),[1]; Day 27,22.3 and 23.1 and 23.5 and 25.2
same,Daily body weight (Figure 7F),[1]; Day 28,22.8 and 23.7 and 24.1 and 25.4
same,"Body weight, daily monitoring",[1]; diabetic WCDD301-treated mice,phenotypes similar to nondiabetic placebo-treated mice
same,"Blood glucose, IPGTT (Figure 6D)","[2]; 8h after WCDD301 dosing (first group, c4-c6), 0 min",135 and 151 and 125
same,"Blood glucose, IPGTT (Figure 6D)","[2]; 8h after WCDD301 dosing (first group, c4-c6), 15 min",160 and 159 and 158
same,"Blood glucose, IPGTT (Figure 6D)","[2]; 8h after WCDD301 dosing (first group, c4-c6), 30 min",175 and 165 and 162
same,"Blood glucose, IPGTT (Figure 6D)","[2]; 8h after WCDD301 dosing (first group, c4-c6), 45 min",165 and 175
same,"Blood glucose, IPGTT (Figure 6D)","[2]; 8h after WCDD301 dosing (first group, c4-c6), 60 min",155 and 145 and 135
same,"Blood glucose, IPGTT (Figure 6D)","[2]; 8h after WCDD301 dosing (first group, c4-c6), 90 min",150 and 135 and 114
same,"Blood glucose, IPGTT (Figure 6D)","[2]; 8h after WCDD301 dosing (second group, c7-c9), 0 min",140 and 151 and 137
same,"Blood glucose, IPGTT (Figure 6D)","[2]; 8h after WCDD301 dosing (second group, c7-c9), 15 min",210 and 206 and 205
same,"Blood glucose, IPGTT (Figure 6D)","[2]; 8h after WCDD301 dosing (second group, c7-c9), 30 min",340 and 307 and 321
same,"Blood glucose, IPGTT (Figure 6D)","[2]; 8h after WCDD301 dosing (second group, c7-c9), 45 min",380 and 356 and 372
same,"Blood glucose, IPGTT (Figure 6D)","[2]; 8h after WCDD301 dosing (second group, c7-c9), 60 min",320 and 395 and 372
same,"Blood glucose, IPGTT (Figure 6D)","[2]; 8h after WCDD301 dosing (second group, c7-c9), 90 min",295 and 386 and 368
same,"Blood glucose, IPGTT (Figure 6D)","[2]; 8h after WCDD301 dosing (second group, c7-c9), 120 min",135 and 159 and 148
same,"Blood glucose, IPGTT (Figure 6D)","[2]; 14h after WCDD301 dosing, 0 min",119 and 140 and 138
same,"Blood glucose, IPGTT (Figure 6D)","[2]; 14h after WCDD301 dosing, 15 min",520 and 480 and 450
same,"Blood glucose, IPGTT (Figure 6D)","[2]; 14h after WCDD301 dosing, 30 min",650 and 550
same,"Blood glucose, IPGTT (Figure 6D)","[2]; 14h after WCDD301 dosing, 45 min",650
same,"Blood glucose, IPGTT (Figure 6D)","[2]; 14h after WCDD301 dosing, 60 min",650 and 550 and 468
same,"Blood glucose, IPGTT (Figure 6D)","[2]; 14h after WCDD301 dosing, 90 min",555 and 450 and 350
same,"Blood glucose, IPGTT (Figure 6D)","[2]; 14h after WCDD301 dosing, 120 min",410 and 325 and 286
same,"Blood glucose, IPGTT (Figure 6D)","[2]; 14h after WCDD301 dosing, 180 min",158 and 151 and 140
same,"Blood glucose, IPGTT (Figure 6D)","[2]; 24h after WCDD301 dosing, 0 min",320 and 290 and 325
same,"Blood glucose, IPGTT (Figure 6D)","[2]; 24h after WCDD301 dosing, 15 min",590 and 480 and 552
same,"Blood glucose, IPGTT (Figure 6D)","[2]; 24h after WCDD301 dosing, 30 min",650 and 590 and 610
same,"Blood glucose, IPGTT (Figure 6D)","[2]; 24h after WCDD301 dosing, 45 min",650
same,"Blood glucose, IPGTT (Figure 6D)","[2]; 24h after WCDD301 dosing, 60 min",590 and 600 and 580
same,"Blood glucose, IPGTT (Figure 6D)","[2]; 24h after WCDD301 dosing, 90 min",520 and 590 and 570
same,"Blood glucose, IPGTT (Figure 6D)","[2]; 24h after WCDD301 dosing, 120 min",490 and 520 and 505
same,"Blood glucose, IPGTT (Figure 6D)","[2]; 24h after WCDD301 dosing, 180 min",510 and 550 and 512
same,Glucose tolerance,[2]; NOD mice versus placebo-treated diabetic control,Glucose tolerance was improved
same,Plasma somatostatin (Figure 7C),[3],310.49 and 318.85 and 327.2 and 342.5
same,Daily urine glucose (Figure 7D),"[4]; Diabetic, WCDD301 treated, Day 10",0
same,"Urine glucose, daily monitoring",[4]; diabetic WCDD301-treated mice,phenotypes similar to nondiabetic placebo-treated mice
same,"Blood chemistry markers (BUN, creatinine, ALB, ALT, AST)",[5]; WCDD301-treated animals,remained in the normal range
same,Creatinine (CREAT),"[5]; non-diabetic NOD mice, 19-week-old, treated with WCDD301, mean ± SEM, n=5, reference interval 0.2-0.5",0.2 ± 0.1 mg/dL
same,Albumin (ALB),"[5]; non-diabetic NOD mice, 19-week-old, treated with WCDD301, mean ± SEM, n=5, reference interval 1.72-3.54",3 ± 0.1 g/dL
same,Alanine aminotransferase (ALT),"[5]; non-diabetic NOD mice, 19-week-old, treated with WCDD301, mean ± SEM, n=5, reference interval 5-394",20.5±9.5 IU/L
same,Blood urea nitrogen (BUN),"[5]; non-diabetic NOD mice, 19-week-old, treated with WCDD301, mean ± SEM, n=5, reference interval 10-79",21 ± 2.3 mg/dL
same,Aspartate aminotransferase (AST),"[5]; non-diabetic NOD mice, 19-week-old, treated with WCDD301, mean ± SEM, n=5, reference interval 18-586",99.5±57.5 IU/L
same,Numbers or sizes of α cells (histology),[6],did not indicate any alterations in numbers or sizes of α cells
